Laboratory results reported in US20260274799A1, “HETEROCYCLIC DERIVATIVES, COMPOSITIONS AND USES THEREOF” (DANATLAS PHARMACEUTICALS CO., LTD., priority 2023, published 2026).

Target: T1, PPARγ-LBD (UniProt ID: P37231-2) (Homo sapiens, UniProt P37231)
T1 construct: PPARγ-LBD (UniProt ID: P37231-2) was expressed and purified in insect system; made in house
T1 sequence (P37231 238-503 limits assumed): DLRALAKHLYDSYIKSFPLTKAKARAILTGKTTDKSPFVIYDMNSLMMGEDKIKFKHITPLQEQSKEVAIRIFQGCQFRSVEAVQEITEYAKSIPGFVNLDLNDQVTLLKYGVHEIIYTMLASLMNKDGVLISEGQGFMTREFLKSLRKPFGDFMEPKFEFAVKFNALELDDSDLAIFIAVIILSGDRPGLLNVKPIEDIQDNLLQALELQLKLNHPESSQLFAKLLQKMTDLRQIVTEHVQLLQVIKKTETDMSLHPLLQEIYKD
Assay: PPARγ-SMRT recruitment assay (TR-FRET)
Assay type: biochemical
Conditions: for Emax: 1 h, max value of % Activation, high control 10 uM control compound, low control 1% DMSO, read-out: Top %; for EC50: TR-FRET, SMRT peptide recruitment to PPARγ-LBD, 120 min pre-incubation
Method: PPARγ TR-FRET assay was initiated to evaluate potential activatory effect of the compounds of the present disclosure for SMRT recruitment to PPARγ protein. PPARγ-LBD (UniProt ID: P37231-2) was expressed and purified in insect system and stored at −80° C. in aliquots. Biotinylated SMRT peptide was synthesized (Biotin-[…]). 5 μL protein solution mixture consisting of 10 nM PPARγ-LBD and 2 nM Anti-His Eu (Cisbio, 61HISKLA) in assay buffer (25 mM HEPES pH7.4, 25 mM KCl, 1 mM EDTA, 0.01% BSA, 0.01% Tween-20, 1 mM TCEP) was added to 384-well plates containing duplicate 10-point dose response titration of compounds in 5 μL assay buffer (1% f.c. DMSO(v/v)). After 120 min pre-incubation at room temperature, 5 μL peptide solution mixture consisting of 50 nM Biotin-SMRT peptide and 25 nM Streptavidin-XL665 (Cisbio, 610SAXLA) added to plates. Plates were incubated for 60 min. and read in CLARIOstar Plus plate reader with Ex/Em 620 nm/[…]. Average TR-FRET ratio of high control (Wells with 10 uM control compound) was calculated as High Control (HC). Average TR-FRET ratio of low control (Wells with 1% DMSO) was calculated as Low control (LC). For one compound, top % is the max value of % Activation.
EC50 values were determined by fitting the data to the standard 4 parameters with Hill Slope using GraphPad Prism software. […] ND: No Determine.

| Structure (SMILES) | Emax | EC50 |
| --- | --- | --- |
| CS(=O)(=O)c1ccc(C#N)cc1-c1cc(=O)c2c(F)c(C#CC3(O)COC3)c(F)cc2[nH]1 [Example 7, 3-(5,7-Difluoro-6-((3-hydroxyoxetan-3-yl)ethynyl)-4-oxo-1,4-dihydroquinolin-2-yl)-4-(methylsulfonyl)benzonitrile] | 207% | < 100 nM |
| CS(=O)(=O)c1ccc(C#N)cc1-c1cc(=O)c2c(F)c(C#Cc3ccccc3)c(F)cc2[nH]1 [Example 11, 3-(5,7-Difluoro-4-oxo-6-(phenylethynyl)-1,4-dihydroquinolin-2-yl)-4-(methylsulfonyl)benzonitrile] | 435% | < 100 nM |
| Cn1cc(C#Cc2c(F)cc3[nH]c(-c4cc(C#N)ccc4S(C)(=O)=O)cc(=O)c3c2F)cn1 [Example 12, 3-(5,7-Difluoro-6-((1-methyl-1H-pyrazol-4-yl)ethynyl)-4-oxo-1,4-dihydroquinolin-2-yl)-4-(methylsulfonyl)benzonitrile] | 181% | < 100 nM |
| CS(=O)(=O)c1ccc(C#N)cc1-c1cc(=O)c2c(F)c(C3CC3)c(F)cc2[nH]1 [Example 13, 3-(6-Cyclopropyl-5,7-difluoro-4-oxo-1,4-dihydroquinolin-2-yl)-4-(methylsulfonyl)benzonitrile] | 187% | < 100 nM |
| Cc1ccccc1C#Cc1c(F)cc2[nH]c(-c3cc(C#N)ccc3S(C)(=O)=O)cc(=O)c2c1F [Example 17, 3-(5,7-Difluoro-4-oxo-6-(o-tolylethynyl)-1,4-dihydroquinolin-2-yl)-4-(methylsulfonyl)benzonitrile] | 613% | < 100 nM |
| CS(=O)(=O)c1ccc(C#N)cc1-c1cc(=O)c2c(F)c(OCc3ccccc3)c(F)cc2[nH]1 [Example 18, 3-(6-(Benzyloxy)-5,7-difluoro-4-oxo-1,4-dihydroquinolin-2-yl)-4-(methylsulfonyl)benzonitrile] | – | < 100 nM |
| CS(=O)(=O)c1ccc(C#N)cc1-c1cc(=O)c2c(F)c(C#Cc3ccncc3)c(F)cc2[nH]1 [Example 22, 3-(5,7-Difluoro-4-oxo-6-(pyridin-4-ylethynyl)-1,4-dihydroquinolin-2-yl)-4-(methylsulfonyl)benzonitrile] | – | < 100 nM |
| CS(=O)(=O)c1ccc(C#N)cc1-c1cc(=O)c2c(F)c(C#CC3COC3)c(F)cc2[nH]1 [Example 24, 3-(5,7-Difluoro-6-(oxetan-3-ylethynyl)-4-oxo-1,4-dihydroquinolin-2-yl)-4-(methylsulfonyl)benzonitrile] | 197% | < 100 nM |
| CS(=O)(=O)c1ccc(C#N)cc1-c1cc(=O)c2c(F)c(CCC3CCOCC3)c(F)cc2[nH]1 [Example 25, 3-(5,7-Difluoro-4-oxo-6-(2-(tetrahydro-2H-pyran-4-yl)ethyl)-1,4-dihydroquinolin-2-yl)-4-(methylsulfonyl)benzonitrile] | – | < 100 nM |
| CS(=O)(=O)c1ccc(C#N)cc1-c1cc(=O)c2c(F)c(OCC3CCC3)c(F)cc2[nH]1 [Example 26, 3-(6-(Cyclobutylmethoxy)-5,7-difluoro-4-oxo-1,4-dihydroquinolin-2-yl)-4-(methylsulfonyl)benzonitrile] | – | < 100 nM |

Now from value to compound:

| Emax | EC50 | Structure (SMILES) |
| --- | --- | --- |
| 495% | < 100 nM | CC(C)(O)C#Cc1c(F)cc2[nH]c(-c3cc(C#N)ccc3S(C)(=O)=O)cc(=O)c2c1F [Example 1, 3-(5,7-Difluoro-6-(3-hydroxy-3-methylbut-1-yn-1-yl)-4-oxo-1,4-dihydroquinolin-2-yl)-4-(methylsulfonyl)benzonitrile] |
| 311% | < 100 nM | C#Cc1c(F)cc2[nH]c(-c3cc(C#N)ccc3S(C)(=O)=O)cc(=O)c2c1F [Example 2, 3-(6-Ethynyl-5,7-difluoro-4-oxo-1,4-dihydroquinolin-2-yl)-4-(methylsulfonyl)benzonitrile] |
| 300% | < 100 nM | CS(=O)(=O)c1ccc(C#N)cc1-c1cc(=O)c2c(F)c(C#CCO)c(F)cc2[nH]1 [Example 3, 3-(5,7-Difluoro-6-(3-hydroxyprop-1-yn-1-yl)-4-oxo-1,4-dihydroquinolin-2-yl)-4-(methylsulfonyl)benzonitrile] |
| 200% | < 100 nM | C[C@@H](O)C#Cc1c(F)cc2[nH]c(-c3cc(C#N)ccc3S(C)(=O)=O)cc(=O)c2c1F [Example 4, (R)-3-(5,7-Difluoro-6-(3-hydroxybut-1-yn-1-yl)-4-oxo-1,4-dihydroquinolin-2-yl)-4-(methylsulfonyl)benzonitrile] |
| 367% | < 100 nM | C[C@H](O)C#Cc1c(F)cc2[nH]c(-c3cc(C#N)ccc3S(C)(=O)=O)cc(=O)c2c1F [Example 5, (S)-3-(5,7-Difluoro-6-(3-hydroxybut-1-yn-1-yl)-4-oxo-1,4-dihydroquinolin-2-yl)-4-(methylsulfonyl)benzonitrile] |
| 266% | < 100 nM | CS(=O)(=O)c1ccc(C#N)cc1-c1cc(=O)c2c(F)c(C#CCCO)c(F)cc2[nH]1 [Example 6, 3-(5,7-Difluoro-6-(4-hydroxybut-1-yn-1-yl)-4-oxo-1,4-dihydroquinolin-2-yl)-4-(methylsulfonyl)benzonitrile] |
| 208% | < 100 nM | CC(C)(N)C#Cc1c(F)cc2[nH]c(-c3cc(C#N)ccc3S(C)(=O)=O)cc(=O)c2c1F [Example 8, 3-(6-(3-Amino-3-methylbut-1-yn-1-yl)-5,7-difluoro-4-oxo-1,4-dihydroquinolin-2-yl)-4-(methylsulfonyl)benzonitrile] |
| 359% | < 100 nM | CS(=O)(=O)c1ccc(C#N)cc1-c1cc(=O)c2c(F)c(C#CC3CC3)c(F)cc2[nH]1 [Example 9, 3-(6-(Cyclopropylethynyl)-5,7-difluoro-4-oxo-1,4-dihydroquinolin-2-yl)-4-(methylsulfonyl)benzonitrile] |
| – | < 100 nM | CC(C)(C)C#Cc1c(F)cc2[nH]c(-c3cc(C#N)ccc3S(C)(=O)=O)cc(=O)c2c1F [Example 10, 3-(6-(3,3-Dimethylbut-1-yn-1-yl)-5,7-difluoro-4-oxo-1,4-dihydroquinolin-2-yl)-4-(methylsulfonyl)benzonitrile] |
| 208% | < 100 nM | CC#Cc1c(F)cc2[nH]c(-c3cc(C#N)ccc3S(C)(=O)=O)cc(=O)c2c1F [Example 19, 3-(5,7-Difluoro-4-oxo-6-(prop-1-yn-1-yl)-1,4-dihydroquinolin-2-yl)-4-(methylsulfonyl)benzonitrile] |
| 210% | < 100 nM | CCC#Cc1c(F)cc2[nH]c(-c3cc(C#N)ccc3S(C)(=O)=O)cc(=O)c2c1F [Example 20, 3-(6-(But-1-yn-1-yl)-5,7-difluoro-4-oxo-1,4-dihydroquinolin-2-yl)-4-(methylsulfonyl)benzonitrile] |
| – | < 100 nM | CC(C)C#Cc1c(F)cc2[nH]c(-c3cc(C#N)ccc3S(C)(=O)=O)cc(=O)c2c1F [Example 21, 3-(5,7-Difluoro-6-(3-methylbut-1-yn-1-yl)-4-oxo-1,4-dihydroquinolin-2-yl)-4-(methylsulfonyl)benzonitrile] |
| 316% | < 100 nM | CC(C)(F)C#Cc1c(F)cc2[nH]c(-c3cc(C#N)ccc3S(C)(=O)=O)cc(=O)c2c1F [Example 23, 3-(5,7-Difluoro-6-(3-fluoro-3-methylbut-1-yn-1-yl)-4-oxo-1,4-dihydroquinolin-2-yl)-4-(methylsulfonyl)benzonitrile] |
